From patent US20230150986A1, “ANTAGONISTS OF THE MUSCARINIC ACETYLCHOLINE RECEPTOR M4” (Vanderbilt University, priority 2019, published 2023) come the findings set out here.

For this test, the target named is T1, Human M4 (Homo sapiens, UniProt P08173).
T1 construct: Human or rat M4 cDNA, along with the chimeric G protein Gq,5, were transfected into Chinese hamster ovary (CHO-K1) cells; expressed in transfected cells; host or cells: CHO-K1 (M4/Gqi5/CHO)
T1 sequence (P08173 1-479): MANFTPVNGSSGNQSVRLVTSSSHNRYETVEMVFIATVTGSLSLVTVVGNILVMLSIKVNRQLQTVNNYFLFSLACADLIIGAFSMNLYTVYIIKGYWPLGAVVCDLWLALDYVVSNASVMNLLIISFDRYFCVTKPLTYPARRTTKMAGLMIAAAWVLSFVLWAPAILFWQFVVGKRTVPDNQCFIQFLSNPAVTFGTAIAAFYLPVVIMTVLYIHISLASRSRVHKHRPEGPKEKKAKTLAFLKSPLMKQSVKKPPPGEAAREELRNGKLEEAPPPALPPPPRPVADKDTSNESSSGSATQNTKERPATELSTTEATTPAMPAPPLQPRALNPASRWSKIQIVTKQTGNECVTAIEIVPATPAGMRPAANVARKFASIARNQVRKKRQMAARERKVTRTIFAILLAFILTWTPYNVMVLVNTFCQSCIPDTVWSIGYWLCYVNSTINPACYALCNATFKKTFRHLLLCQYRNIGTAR
The test is described as follows: mAChR M4 cell-based functional assay (calcium flux, decrease of EC80 acetylcholine response). To be noted: for Human M4 Emin: % ACh maximum at 30 μM; for IC50: CHO-K1 cells with human M4 and Gqi5, EC80 acetylcholine. As to the method:
Human or rat M4 cDNA, along with the chimeric G protein Gq,5, were transfected into Chinese hamster ovary (CHO-K1) cells purchased from the American Type Culture Collection using Lipofectamine2000. M4/Gqi5/CHO cells were grown in Ham's F-12 medium containing 10% heat-inactivated fetal bovine serum (FBS), 20 mM HEPES, 500 μg/mL G^418 sulfate, and 200 μg/mL Hygromycin B.
For high throughput measurement of agonist-evoked increases in intracellular calcium, CHO-K1 cells stably expressing muscarinic receptors were plated in growth medium lacking G418 and hygromycin at 15,000 cells/20 μL/well in Greiner 384-well black-walled, tissue culture (TC)-treated, clear-bottom plates (VWR). Cells were incubated overnight at 37° C. and 5% CO2. The next day, cells were washed using an ELX 405 (BioTek) with assay buffer; the final volume was then aspirated to 20 μL. Next, 20 μL of a 2.3 μM stock of Fluo-4/acetoxymethyl ester (Invitrogen, Carlsbad, Calif.), prepared as a 2.3 mM stock in DMSO and mixed in a 1:1 ratio with 10% (w/v) Pluronic F-127 and diluted in assay buffer, was added to the wells and the cell plates were incubated for 50 min at 37° C. and 5% CO2. Dye was removed by washing with the ELX 405 and the final volume was aspirated to 20 μL. Compound master plates were formatted in a 10 point concentration-response curve (CRC) format (1:3 dilutions) in 100% DMSO with a starting concentration of 10 or 1 mM using a BRAVO liquid handler (Agilent). Test compound CRCs were then transferred to daughter plates (240 nL) using the Echo acoustic plate reformatter (Labcyte, Sunnyvale, Calif.) and then diluted into assay buffer (40 μL) to a 2× stock using a Thermo Fisher Combi (Thermo Fisher Scientific, Waltham, Mass.).
Calcium flux was measured using the Functional Drug Screening System (FDSS) 6000 or 7000 (Hamamatsu Corporation, Tokyo, Japan) as an increase in the fluorescent static ratio. Compounds were applied to cells (20 μL, 2×) using the automated system of the FDSS at 2 seconds into the protocol and the data were collected at 1 Hz. At 143 s, 10 μL of an EC20 concentration of the muscarinic receptor agonist acetylcholine was added (5×), followed by the addition of […] of an EC80 concentration of acetylcholine at the 268 s time point (5×). Agonist activity was analyzed as a concentration-dependent increase in calcium mobilization upon compound addition. Positive allosteric modulator activity was analyzed as a concentration-dependent increase in the EC2o acetylcholine response. Antagonist activity was analyzed as a concentration-dependent decrease in the EC80 acetylcholine response; for the purposes of the tables herein, an IC50 (inhibitory concentration 50) was calculated as a concentration-dependent decrease of the response elicited by an EC80 concentration of acetylcholine. Concentration-response curves were generated using a four-parameter logistical equation in XLFit curve fitting software (IDBS, Bridgewater, N.J.) for Excel (Microsoft, Redmond, Wash.) or Prism (GraphPad Software, Inc., San Diego, Calif.) or the Dotmatics software platform (Dotmatics, Bishop's Stortford, UK).
Compounds were synthesized as described above. Activity (IC50 and Emin) was determined in the mAChR M4 cell-based functional assay as described above and the data are shown in Table 2.

For `[2H]C([2H])([C@@H]1CC12CCOCC2)N1C[C@H]2C[C@H](Nc3ccc(-c4cc(F)cc(F)c4F)nn3)C[C@H]2C1` [Compound 77, (3aR,5s,6aS)-2-((6-oxaspiro[2.5]octan-1-yl)methyl-d2)-N-(6-(2,3,5-trifluorophenyl)pyridazin-3-yl)octahydrocyclopenta[c]pyrrol-5-amine], the “Human M4 Emin” value is 3% and the IC50 came out at 0.0021 µM.
As for `[2H]C([2H])(C1CC(C)(O)C1)N1C[C@H]2C[C@H](Nc3ccc(-c4cc(F)cc(F)c4F)nn3)C[C@H]2C1` (stereo partly drawn) [Compound 55, 1-methyl-3-(((3aR,5s,6aS)-5-((6-(2,3,5-trifluorophenyl)pyridazin-3-yl)amino)hexahydrocyclopenta[c]pyrrol-2(1H)-yl)methyl-d2)cyclobutan-1-ol], the “Human M4 Emin” value was 5% and the IC50 stood at 0.015 µM.
Consider `Fc1cc(F)c(F)c(-c2ccc(N[C@H]3C[C@@H]4CN(C[C@@H]5COCCO5)C[C@@H]4C3)nn2)c1` [Compound 28, (3aR,5s,6aS)-2-(((R)-1,4-dioxan-2-yl)methyl)-N-(6-(2,3,5-trifluorophenyl)pyridazin-3-yl)octahydrocyclopenta[c]pyrrol-5-amine], for which the “Human M4 Emin” value is recorded as 4% and the IC50 turned out to be 0.00069 µM.
The like results for `[2H]C([2H])([C@H]1[C@@H]2COC[C@@H]21)N1C[C@H]2C[C@H](Nc3ccc(-c4cc(F)cc(F)c4F)nn3)C[C@H]2C1` [Compound 76, (3aR,5s,6aS)-2-(((1R,58,6s)-3-oxabicyclo[3.1.0]hexan-6-yl)methyl-d2)-N-(6-(2,3,5-trifluorophenyl)pyridazin-3-yl)octahydrocyclopenta[c]pyrrol-5-amine] were, in that order, 3% and 0.00059 µM.
The like results for `COc1cccc(CN2C[C@H]3C[C@H](Nc4ccc(-c5cc(F)cc(F)c5F)nn4)C[C@H]3C2)n1` [Compound 17, (3aR,5s,6aS)-2-((6-methoxypyridin-2-yl)methyl)-N-(6-(2,3,5-trifluorophenyl)pyridazin-3-yl)octahydrocyclopenta[c]pyrrol-5-amine] were, in that order, 2% and 0.0571 µM.
For `Fc1cc(F)c(F)c(-c2ccc(N[C@H]3C[C@@H]4CN(CC5CCCOC5)C[C@@H]4C3)nn2)c1` (single isomer, unassigned) [Compound 25], the “Human M4 Emin” value was determined as 3% and the IC50 was 0.0057 µM.
Regarding `[2H]C(C)(N1C[C@H]2C[C@H](Nc3ccc(-c4cc(F)cc(F)c4F)nn3)C[C@H]2C1)C1(C)CCOCC1` (stereo partly drawn) [Compound 45, (3aR,5s,6aS)-2-(1-(4-methyltetrahydro-2H-pyran-4-yl)ethyl-1-d)-N-(6-(2,3,5-trifluorophenyl)pyridazin-3-yl)octahydrocyclopenta[c]pyrrol-5-amine], the “Human M4 Emin” value was determined as 1% and the IC50 was determined as 0.141 µM.
As for `COCCCN1C[C@H]2C[C@H](Nc3ccc(-c4cc(F)cc(F)c4F)nn3)C[C@H]2C1` [Compound 75, (3aR,5s,6aS)-2-(3-methoxypropyl)-N-(6-(2,3,5-trifluorophenyl)pyridazin-3-yl)octahydrocyclopenta[c]pyrrol-5-amine], the “Human M4 Emin” value worked out at 4% and the IC50 was found to be 0.079 µM.
The corresponding values for `Cc1cccc(CN2C[C@H]3C[C@H](Nc4ccc(-c5cc(F)cc(F)c5F)nn4)C[C@H]3C2)n1` [Compound 16, (3aR,5s,6aS)-2-((6-methylpyridin-2-yl)methyl)-N-(6-(2,3,5-trifluorophenyl)pyridazin-3-yl)octahydrocyclopenta[c]pyrrol-5-amine] are 3% and 0.038 µM.
As to `CCOCCN1C[C@H]2C[C@H](Nc3ccc(-c4cc(F)cc(F)c4F)nn3)C[C@H]2C1` [Compound 74, (3aR,5s,6aS)-2-(2-ethoxyethyl)-N-(6-(2,3,5-trifluorophenyl)pyridazin-3-yl)octahydrocyclopenta[c]pyrrol-5-amine], the “Human M4 Emin” value was found to be 4% and the IC50 came out at 0.21 µM.
In the case of `OC1CCCCC1N1C[C@H]2C[C@H](Nc3ccc(-c4cc(F)cc(F)c4F)nn3)C[C@H]2C1` (stereo partly drawn) [Compound 65, 2-((3aR,5s,6aS)-5-((6-(2,3,5-trifluorophenyl)pyridazin-3-yl)amino)hexahydrocyclopenta[c]pyrrol-2(1H)-yl)cyclohexan-1-ol], the “Human M4 Emin” value turned out to be 6% and the concentration for half-maximal inhibition (IC50) came out at 0.35 µM.
In the case of `Fc1cc(F)c(F)c(-c2ccc(N[C@H]3C[C@@H]4CN(Cc5cc6n(n5)CCOC6)C[C@@H]4C3)nn2)c1` [Compound 36, (3aR,5s,6aS)-2-((6,7-dihydro-4H-pyrazolo[5,1-c][1,4]oxazin-2-yl)methyl)-N-(6-(2,3,5-trifluorophenyl)pyridazin-3-yl)octahydrocyclopenta[c]pyrrol-5-amine], the “Human M4 Emin” value was 3% and the IC50 is 0.00222 µM.
The corresponding values for `CC1(CN2C[C@H]3C[C@H](Nc4ccc(-c5cc(F)cc(F)c5F)nn4)C[C@H]3C2)CCOCC1` [Compound 11, (3aR,5s,6aS)-2-((4-methyltetrahydro-2H-pyran-4-yl)methy)-N-(6-(2,3,5-trifluorophenyl)pyridazin-3-yl)octahydrocyclopenta[c]pyrrol-5-amine] are 3% and 0.00463 µM.
With `Fc1cc(F)c(F)c(-c2ccc(N[C@H]3C[C@@H]4CN(C5CC6(COC6)C5)C[C@@H]4C3)nn2)c1` [Compound 35, (3aR,5s,6aS)-2-(2-oxaspiro[3.3]heptan-6-yl)-N-(6-(2,3,5-trifluorophenyl)pyridazin-3-yl)octahydrocyclopenta[c]pyrrol-5-amine], the “Human M4 Emin” value came out at 3% and the IC50 was found to be 0.798 µM.
Regarding `Fc1cc(F)c(F)c(-c2ccc(N[C@H]3C[C@@H]4CN(C[C@H]5CCOC5)C[C@@H]4C3)nn2)c1` [Compound 30, (3aR,5s,6aS)-2-(((R)-tetrahydrofuran-3-yl)methyl)-N-(6-(2,3,5-trifluorophenyl)pyridazin-3-yl)octahydrocyclopenta[c]pyrrol-5-amine], the “Human M4 Emin” value is 2% and the half-inhibitory concentration (IC50) was 0.0632 µM.
The like results for `Cc1cccnc1CN1C[C@H]2C[C@H](Nc3ccc(-c4cc(F)cc(F)c4F)nn3)C[C@H]2C1` [Compound 23, (3aR,5s,6aS)-2-((3-methylpyridin-2-yl)methyl)-N-(6-(2,3,5-trifluorophenyl)pyridazin-3-yl)octahydrocyclopenta[c]pyrrol-5-amine] were, in that order, 5% and 0.0424 µM.
The like results for `[2H]C([2H])(C1CCOCC1(F)F)N1C[C@H]2C[C@H](Nc3ccc(-c4cc(F)cc(F)c4F)nn3)C[C@H]2C1` (stereo partly drawn) [Compound 93, (3aR,5s,6aS)-2-((3,3-difluorotetrahydro-2H-pyran-4-yl)methyl-d2)-N-(6-(2,3,5-trifluorophenyl)pyridazin-3-yl)octahydrocyclopenta[c]pyrrol-5-amine] were, in that order, 3% and 0.0039 µM.
